DBAASP
In brackets after ≈: the same amount, converted by molar mass.

Tests used:
Experiment in all cases: ≥ marks a high value that may be exact or a test limit, other limits are often not marked, values filed in µg/mL are converted to µM
[1] = tested on: Escherichia coli ATCC 25922
[2] = tested on: Staphylococcus aureus ATCC 25923
[3] = tested on: Pseudomonas aeruginosa ATCC 27853
Escherichia coli = tested on: Escherichia coli

| SMILES | MIC [1] | MIC [2] | MIC [3] | MIC (Escherichia coli) |
| --- | --- | --- | --- | --- |
| CC[C@H](C)[C@H](NC(=O)[C@H](CC(=O)O)NC(=O)[C@@H](NC(=O)[C@@H](NC(=O)CN)C(C)C)C(C)C)C(=O)N[C@@H](CC(C)C)C(=O)N[C@@H](CCCCN)C(=O)NCC(=O)N[C@@H](C)C(=O)N[C@@H](C)C(=O)N[C@@H](CCCCN)C(=O)N[C@@H](CC(=O)O)C(=O)N[C@@H](CC(C)C)C(=O)N[C@@H](C)C(=O)NCC(=O)N[C@@H](Cc1cnc[nH]1)C(=O)N[C@@H](CC(C)C)C(=O)N[C@@H](C)C(=O)N[C@@H](CO)C(=O)N[C@@H](CCCCN)C(=O)N[C@H](C(=O)O)C(C)C [GVVDILKGAAKDLAGHLASKV] | 60.6 µM (≈ 125 µg/mL) | – | – | – |
| CC(C)C[C@H](NC(=O)[C@H](CO)NC(=O)[C@@H](N)CCCCN)C(=O)N[C@@H](CCCN=C(N)N)C(=O)N[C@@H](CCCN=C(N)N)C(=O)N[C@H](C(=O)N[C@@H](Cc1c[nH]c2ccccc12)C(=O)N[C@@H](CCCN=C(N)N)C(=O)N[C@@H](CO)C(=O)N[C@@H](Cc1c[nH]c2ccccc12)C(=O)N[C@@H](CCCN=C(N)N)C(N)=O)C(C)C [KSLRRVWRSWR] | 30 µM (≈ 45.9 µg/mL) | 60 µM (≈ 91.7 µg/mL) | 40 µM (≈ 61.2 µg/mL) | – |
| CC[C@H](C)[C@H](NC(=O)[C@H](CCCCN)NC(=O)[C@@H]1CCCN1C(=O)[C@@H](NC(=O)[C@H](CC(C)C)NC(=O)[C@H](C)NC(=O)[C@H](Cc1ccccc1)NC(=O)[C@H](Cc1ccccc1)NC(=O)CN)[C@@H](C)CC)C(=O)N[C@H](C(=O)N[C@@H](CO)C(=O)N[C@@H](CO)C(=O)N1CCC[C@H]1C(=O)N[C@@H](CC(C)C)C(=O)N[C@@H](Cc1ccccc1)C(=O)N[C@@H](CCCCN)C(=O)N[C@H](C(=O)N[C@@H](CC(C)C)C(N)=O)[C@@H](C)O)[C@@H](C)CC [GFFALIPKIISSPLFKTL] | – | – | – | 17.1 µM (≈ 34 µg/mL) |
| CC[C@H](C)[C@H](NC(=O)[C@H](CCCN=C(N)N)NC(=O)[C@H](CCCCN)NC(=O)[C@H](CC(C)C)NC(=O)[C@H](CC(C)C)NC(=O)CN)C(=O)N[C@@H](CCCCN)C(=O)N[C@@H](Cc1ccccc1)C(=O)N[C@@H](CC(C)C)C(=O)N[C@@H](CC(C)C)C(N)=O [GLLKRIKFLL] | 6.66 µM (≈ 7.99 µg/mL) | 6.66 µM (≈ 7.99 µg/mL) | – | – |
| CC(C)C[C@H](NC(=O)[C@H](Cc1ccccc1)NC(=O)[C@H](C)NC(=O)[C@H](Cc1c[nH]c2ccccc12)NC(=O)[C@H](Cc1c[nH]c2ccccc12)NC(=O)[C@H](Cc1c[nH]c2ccccc12)NC(=O)[C@H](C)NC(=O)[C@H](Cc1ccccc1)NC(=O)[C@H](CCCCN)NC(=O)[C@H](CCCCN)NC(=O)[C@@H](N)C(C)C)C(=O)N[C@@H](CCCCN)C(=O)N[C@@H](CCCCN)C(N)=O [VKKFAWWWAFLKK] | 2 µM (≈ 3.47 µg/mL) | – | – | – |
| CC[C@H](C)[C@H](NC(=O)CN)C(=O)N[C@@H](CCCCN)C(=O)N[C@@H](CCCCN)C(=O)N[C@@H](Cc1ccccc1)C(=O)N[C@@H](CC(C)C)C(=O)N[C@@H](Cc1cnc[nH]1)C(=O)N[C@H](C(=O)N[C@H](C(=O)N[C@@H](Cc1c[nH]c2ccccc12)C(=O)N[C@@H](CCCCN)C(=O)N[C@@H](Cc1ccccc1)C(=O)N[C@H](C(=O)N[C@@H](CCCCN)C(=O)N[C@@H](C)C(=O)N[C@@H](Cc1ccccc1)C(=O)N[C@H](C(=O)NCC(=O)N[C@@H](CCC(=O)O)C(=O)N[C@H](C(=O)N[C@@H](CCSC)C(=O)N[C@@H](CC(N)=O)C(=O)N[C@@H](CO)C(=O)O)[C@@H](C)CC)C(C)C)[C@@H](C)CC)[C@@H](C)CC)[C@@H](C)CC [GIKKFLHIIWKFIKAFVGEIMNS] | 16 µM (≈ 43.5 µg/mL) | – | – | – |
| CC[C@H](C)[C@H](NC(=O)[C@H](CCCN=C(N)N)NC(=O)[C@H](CCCCN)NC(=O)[C@H](CC(C)C)NC(=O)[C@H](CC(C)C)NC(=O)CN)C(=O)N[C@@H](CCCCN)C(=O)N[C@H](C(=O)N[C@@H](C)C(=O)N[C@@H](CC(C)C)C(N)=O)[C@@H](C)O [GLLKRIKTAL] | 44 µM (≈ 49 µg/mL) | > 27.9 µM | – | – |
| CC[C@H](C)[C@H](NC(=O)[C@H](Cc1ccc(O)cc1)NC(=O)[C@H](CCC(N)=O)NC(=O)[C@H](CC(C)C)NC(=O)[C@H](C)NC(=O)[C@H](CCCCN)NC(=O)[C@H](CCCCN)NC(=O)[C@H](CCSC)NC(=O)[C@H](CCCCN)NC(=O)[C@@H](N)CCCCN)C(=O)N[C@@H](CCCCN)C(=O)N[C@@H](CC(C)C)C(=O)N[C@@H](CC(C)C)C(=O)N[C@@H](CCCCN)C(=O)N[C@@H](CCC(=O)O)C(N)=O [KKMKKALQYIKLLKE] | > 100 µM | – | > 100 µM | – |
| CC[C@H](C)[C@H](NC(=O)[C@H](C)NC(=O)[C@H](CCCCN)NC(=O)[C@H](CC(C)C)NC(=O)[C@H](CC(C)C)NC(=O)CN)C(=O)N[C@@H](CCCCN)C(=O)N[C@H](C(=O)N[C@@H](CC(C)C)C(=O)N[C@@H](CC(C)C)C(N)=O)[C@@H](C)O [GLLKAIKTLL] | 4.68 µM (≈ 5 µg/mL) | 9.35 µM (≈ 9.99 µg/mL) | – | – |
| CC[C@H](C)[C@H](NC(=O)CNC(=O)[C@H](CO)NC(=O)[C@H](CCCN=C(N)N)NC(=O)[C@@H](NC(=O)CNC(=O)[C@H](Cc1c[nH]c2ccccc12)NC(=O)[C@H](CC(C)C)NC(=O)[C@H](CC(=O)O)NC(=O)[C@@H](NC(=O)[C@H](CCCCN)NC(=O)[C@H](CC(C)C)NC(=O)[C@@H](N)CCC(N)=O)C(C)C)[C@@H](C)O)C(N)=O [QLKVDLWGTRSGI] | > 100 µM | > 100 µM | > 100 µM | – |
| CC[C@H](C)[C@H](NC(=O)CN)C(=O)N[C@@H](CC(C)C)C(=O)N[C@@H](CO)C(=O)N[C@@H](CO)C(=O)N[C@@H](Cc1ccccc1)C(=O)N[C@@H](CCCCN)C(=O)NCC(=O)N[C@H](C(=O)N[C@@H](C)C(=O)N[C@@H](CCCCN)C(=O)NCC(=O)N[C@H](C(=O)N[C@@H](C)C(=O)N[C@@H](CCCCN)C(=O)N[C@@H](CC(=O)O)C(=O)N[C@@H](CC(C)C)C(=O)N[C@@H](C)C(=O)NCC(=O)N[C@@H](CCCCN)C(=O)N[C@@H](CC(C)C)C(=O)N[C@@H](CC(C)C)C(=O)N[C@@H](CCC(=O)O)C(=O)N[C@H](C(=O)N[C@@H](CC(C)C)C(=O)N[C@@H](CCCCN)C(N)=O)[C@@H](C)O)C(C)C)C(C)C [GILSSFKGVAKGVAKDLAGKLLETLK] | 6.3 µM (≈ 16.7 µg/mL) | – | – | – |
| CC[C@H](C)[C@H](NC(=O)[C@H](Cc1ccccc1)NC(=O)[C@H](CCCCN)NC(=O)[C@H](CC(C)C)NC(=O)[C@H](CC(C)C)NC(=O)CN)C(=O)N[C@@H](CCCCN)C(=O)N[C@H](C(=O)N[C@@H](CC(C)C)C(=O)N[C@@H](CC(C)C)C(N)=O)[C@@H](C)O [GLLKFIKTLL] | 1.75 µM (≈ 2 µg/mL) | 1.75 µM (≈ 2 µg/mL) | – | – |
| NCCCC[C@H](NC(=O)[C@H](CCCCN)NC(=O)[C@H](CCCCN)NC(=O)[C@H](CCCN=C(N)N)NC(=O)[C@H](CCCN=C(N)N)NC(=O)[C@H](Cc1ccc(O)cc1)NC(=O)[C@@H](N)CCCN=C(N)N)C(N)=O [RYRRKKK] | > 100 µM | – | > 100 µM | – |
| CSCC[C@H](NC(=O)[C@H](CCCCN)NC(=O)[C@H](CCCCN)NC(=O)[C@H](CCCCN)NC(=O)[C@H](CCCN=C(N)N)NC(=O)[C@H](CCCN=C(N)N)NC(=O)[C@H](Cc1ccc(O)cc1)NC(=O)[C@@H](N)CCCN=C(N)N)C(=O)N[C@@H](CCCCN)C(=O)N[C@@H](CCCCN)C(=O)N[C@@H](C)C(N)=O [RYRRKKKMKKA] | > 100 µM | – | > 100 µM | – |
| CC(C)C[C@H](NC(=O)[C@H](CCCCN)NC(=O)CNC(=O)[C@@H](N)CO)C(=O)N[C@@H](CS)C(=O)N[C@@H](CS)C(=O)N[C@@H](CCCN=C(N)N)C(=O)N[C@@H](CCCN=C(N)N)C(=O)N[C@@H](CCCCN)C(=O)N[C@@H](CCCCN)C(N)=O [SGKLCCRRKK] | – | > 100 µM | > 100 µM | – |
